# Experimental data taken from patent publication US11267806B2, “Indazole compound for use in inhibiting kinase activity, composition and application thereof” (Shenzhen TargetRx, Inc., priority 2017, dated 2022).
# Tests used:
# [1] = Pharmacokinetic assay in rats; format: in vivo, SD rat; settings: male SD rats, i.g., 3 mg/kg; for AUC(0-t) / Cmax / MRT / Tmax: rat, plasma, po
# Method: (4) Pharmacokinetic Assay in Rats Assay objective: after administration of test compounds to rats, the pharmacokinetic behavior of the compounds disclosed herein was investigated. Assay Animals: Species and strains: SD rat grade: SPF grade Gender and quantity: male, 6 Weight range: 180 to 220 g (the actual weight range was from 187 to 197 g) Assay Procedure: Before blood samples were collected, 20 μL of 2 M sodium fluoride solution (esterase inhibitor) was previously added to an EDTA-K2 anticoagulant tube, dried in an 80° C. oven, and placed in a 4° C. refrigerator. Rats (male, weighing 187 to 197 g) were randomly divided into 2 groups, and were fasted overnight in the afternoon before the experiment but were allowed to drink water freely. Food was given 4 hours after the administration. […] About 100-200 μL of blood was taken from the orbital vein of rats at 15 min, 30 min, 1, 2, 3, 5, 8 and 10 h after administration, placed in a 0.5 mL Eppendorf tube with EDTA-K2 anticoagulant and mixed immediately. After anticoagulation, the tube was gently inverted 5-6 times as quickly as possible. After the blood was taken, it was placed in an ice box, and then within 30 min, the blood sample was centrifuged for 10 min at 4000 rpm and 4° C. to separate the plasma. Immediately after collection of all plasma, it was stored at −20° C. The concentration of the drug in plasma at each time point was determined after sample collection at all time points. Based on the data of the average concentration of the drug in plasma versus time after administration obtained as described above, pharmacokinetics-related parameters of male SD rats after the i.g. administration of test compounds (3 mg/kg) were calculated using the Winnonin software according to non-compartment statistical moment theory.
# [2] = tested on: Ba/F3 EML-ALK cells; experiment: Cytotoxicity assay (cell viability, CellTiter-Glo), Ba/F3 EML-ALK; format: cell-based; settings: Mus musculus, BaF3, 72 h, read-out: Ba/F3 EML-ALK IC50
# [3] = Liver microsomal metabolism assay, rat; format: in vitro ADME; settings: SD, pH 7.4, rat liver microsomes 0.5 mg/mL, compound 1 μM, 37° C.; for microsomal CLint at 1 μM: read-out: Rat liver microsome assay CLint; for half-life at 1 μM: read-out: Rat liver microsome assay t1/2
# Method: (§1) (3) Liver Microsomal Metabolism Assay
# (§2) […]; Coenzyme (NADPH/NADH): 1 mM, Sigma Life Science; Magnesium chloride: 5 mM, 100 mM phosphate buffer (pH 7.4).
# (§3) Preparation of stock solutions: Powder of the compounds were accurately weighed and dissolved in DMSO to 5 mM.
# (§4) Preparation of phosphate buffer (100 mM, pH7.4): A pre-prepared 0.5M potassium dihydrogen phosphate (150 mL) was mixed with 0.5M dibasic potassium phosphate (700 mL). The pH of the mixture was adjusted to 7.4 with 0.5M dibasic potassium phosphate solution. The mixture was diluted 5-fold with ultrapure water before use, and magnesium chloride was added to obtain a phosphate buffer (100 mM) containing 100 mM potassium phosphate, 3.3 mM magnesium chloride, pH 7.4.
# (§5) A NADPH regeneration system solution (containing 6.5 mM NADP, 16.5 mM G-6-P, 3 U/mL G-6-P D, 3.3 mM magnesium chloride) was prepared and placed on wet ice prior to use.
# (§6) Incubation of the samples: The stock solutions of the respective compounds were respectively diluted to 0.25 mM with an aqueous solution containing 70% acetonitrile, and used as a working solution, ready for use. 398 μL of the dilution of human liver microsomes or rat liver microsomes were added to 96-well incubation plates (N=2), respectively, and 2 μL of 0.25 mM working solution was added and mixed.
# (§7) Metabolic stability assay: 300 μL of pre-chilled stop solution was added to each well of 96-well deep well plates and placed on ice as stop plates. The 96-well incubation plates and NADPH regeneration system were placed in a 37° C. water bath box, shaken at 100 rpm and pre-incubated for 5 min. 80 μL of incubation solution was taken out from each well of the incubation plates and added to the stop plates, mixed, and replenished with 20 μL of NADPH regeneration system solution as a 0-min sample. 80 μL of NADPH regeneration system solution was added to each well of the incubation plates to start the reaction and start counting. […] Separately, 100 μL of the reaction solutions was taken at 10, 30, and 90 min reaction, respectively, added to stop plates, and vortexed for 3 minutes to terminate the reaction. The stop plates were centrifuged at 5000×g at 4° C. for 10 min. 100 μL of the supernatant was added to a 96-well plate to which 100 μL of distilled water was previously added, mixed, and analyzed by LC-MS/MS.
# (§8) Data analysis: The peak areas of the corresponding compounds and internal standard were detected by LC-MS/MS system, and the ratio of the peak area of the compounds to the internal standard was calculated.
# (§9) The metabolic stability of the compounds in human and rat liver microsomes was evaluated by simultaneously testing and comparing the compounds disclosed herein and the non-deuterated compound. […]
# [4] = tested on: HCC-78 (SLC34A2-ROS1) cells; experiment: cells; settings: Homo sapiens, HCC78, 72 h, read-out: HCC-78 IC50
# Method: (§10) Assay methods: 1. Preparation of cell plates: Ba/F3, and Ba/F3 Bcr-Abl T315I cells were separately seeded in 96-well plates, and 8 ng/ml IL-3 was added to Ba/F3 cells. The cell plates were placed in a carbon dioxide incubator for culture overnight. 2. […] 3. Treatment of cells with compounds: The compounds were transferred to cell plates at a starting concentration of 10 μM. The cell plates were incubated in a carbon dioxide incubator for 3 days. 4. Detection: CellTiter-Glo reagent was added to the cell plates and incubated for 30 minutes at room temperature to stabilize the luminescence signal. Readings were performed using a PerkinElmer Envision multi-label analyzer.
# [5] = tested on: KM12 (TPM3-TRKA) cells; experiment: cells; settings: Homo sapiens, KM12, 72 h, read-out: KM12 IC50
# Method: as §10
# [6] = Liver microsomal metabolism assay, human; format: in vitro ADME; settings: pH 7.4, human liver microsomes 0.5 mg/mL, compound 1 μM, 37° C.; for microsomal CLint at 1 μM: read-out: Human liver microsome assay CLint; for half-life at 1 μM: read-out: Human liver microsome assay t1/2
# Method: as §1, §2, §3, §4, §5, §6, §7, §8, §9
# [7] = tested on: Ba/F3 EML-ALK^L1196M cells; experiment: Cytotoxicity assay (cell viability, CellTiter-Glo), Ba/F3 EML-ALK L1196M; format: cell-based; settings: Mus musculus, BaF3, 72 h, read-out: Ba/F3 EML-ALK^L1196M IC50
Structure (SMILES),Cl_pred [1] [L/h/kg],F [1] [%],AUC(0-t) [1] [ng·h/mL],Cmax [1] [ng/mL],MRT [1] [h],Tmax [1] [h],IC50 [2] [nM],microsomal CLint at 1 μM [3] [µL/min/mg],half-life at 1 μM [3] [min],IC50 [4] [nM],IC50 [5] [nM],microsomal CLint at 1 μM [6] [µL/min/mg],half-life at 1 μM [6] [min],IC50 [7] [nM]
"CN1CCN(c2ccc(C(=O)Nc3n[nH]c4ccc(Cc5cc(F)cc(F)c5)cc34)c(NC3CCOCC3)c2)CC1 [Entrectinib, N-(5-(3,5-difluorobenzyl)-1H-indazol-3-yl)-4-(4-methylpiperazin-1-yl)-2-((tetrahydro-2H-pyran-4-yl)amino)benzamide, reference compound]",6.83,9.23,1460,236,4.24,2.17,50 to 150,32.9,42.2,10 to 50,1 to 10,48.1,28.8,> 200
"[2H]C([2H])([2H])N1CCN(c2ccc(C(=O)Nc3n[nH]c4ccc(Cc5cc(F)cc(F)c5)cc34)c(NC3CCOCC3)c2)CC1 [Compound T-1, N-(5-(3,5-difluorobenzyl)-1H-indazol-3-yl)-4-(4-(methyl-d3)piperazin-1-yl)-2-((tetrahydro-2H-pyran-4-yl)amino)benzamide]",9.29,7.43,1070,145,5.31,3.33,50 to 150,21.3,65.2,10 to 50,1 to 10,34.7,39.9,
